Where two headings read alike, the source gives them in different places.
Legend:
HCV genotype 1b replicon = assay: HCV replicon assay, genotype 1b replicon EC50; type: cell-based, Hepatitis C virus; settings: genotype 1b replicon, read-out: EC50 [gt-1b]
In short: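 Potency comes from a four-parameter fit of signal as percent of DMSO control. Replicon-bearing cells were treated 24-48 hours with a compound dilution series in absence of G418, and replicon RNA was quantified normalized to cyclophilin A RNA, or luciferase read.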

[1] = biological target: HCV NS3/4A protease genotype 1b (Hepatitis C virus genotype 1b, UniProt P26663); assay: HCV NS3/4A protease time-resolved fluorescence (TRF) assay, Ki against genotype 1b; type: biochemical
In short: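 Enzyme 0.2 nM 1b / 0.4 nM A156T / 0.025 nM 3a; 30 min preinc. w/ cpd; 25 nM TRF peptide; 2.5 h RT; ex 340/em 615 time-delayed; 4-param IC50 → Ki = IC50/(1+[S]/KM).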

[2] = biological target: HCV NS3/4A protease A156T mutant (Hepatitis C virus genotype 1b, UniProt P26663, A1182T); assay: HCV NS3/4A protease time-resolved fluorescence (TRF) assay, Ki against A156T mutant; type: biochemical
Procedure: (§1) Measuring NS3/4A Inhibitory Activity (Ki) Against Genotype 1b, Against A156T Mutants and Against Genotype 3a
(§2) One assay for measuring inhibitory activity is HCV NS3 protease time-resolved fluorescence (TRF) assay as described below and in Mao et al., Anal. Biochem. 373:1-8, 2008 and International Patent Application Publication WO 2006/102087. A NS3 protease assay can be performed, for example, in a final volume of 20 μl assay buffer containing 50 mM HEPES, pH 7.5, 150 mM NaCl, 15% glycerol, 0.15% TRITON X-100, 10 mM DTT, and 0.1% PEG 8000. NS3 and NS4A protease is pre-incubated with various concentrations of inhibitors in DMSO for 30 min. The reaction is initiated by adding the TRF peptide substrate (final concentration 25 nM). NS3 mediated hydrolysis of the substrate was run for 2.5 hours at room temperature. Product fluorescence is detected using A Pherastar Plus plate reader (BMG) or Envision (Perkin Elmer Life and Analytical Sciences with excitation at 340 nm and emission at 615 nm using the appropriate delay time optimized for the europium fluorescence probe. Testing concentrations of different enzyme forms are selected to result in a signal to background ratio (S/B) of 10-30. IC50 values are derived using a standard four-parameter fit to the data. Ki values are derived from IC50 values using the following formula, IC50=Ki(1+[S]/KM), Eqn (1), where [S] is the concentration of substrate peptide in the reaction and KM is the Michaelis constant. See P. Gallinari et al., 38 BIOCHEM. 5620-32 (1999); P. Gallinari et al., 72 J. VIROL. 6758-69 (1998); M. Taliani et al., 240 ANAL. BIOCHEM. 60-67 (1996); Mao et al., Analytical Biochemistry 373: 1-8, 2008.
(§3) The assay described above was run against genotype 1b at a concentration of 0.2 nM, against A156T mutant strains at a concentration of 0.4 nM, and against genotype 3a at a concentration of 0.025 nM.

[3] = biological target: HCV NS3/4A protease genotype 3a (Hepatitis C virus genotype 3a, UniProt Q81495); assay: HCV NS3/4A protease time-resolved fluorescence (TRF) assay, Ki against genotype 3a; type: biochemical
Procedure: as §1, §2, §3

[4] = NS3/4A gt-1b A156T mutant, enzyme 0.4 nM, read-out: IC50 [gt-1b A156T]
[5] = IC50 [gt-1b], NS3/4A protease TRF assay, genotype 1b enzyme 0.2 nM
[6] = NS3/4A protease TRF assay, A156T mutant enzyme 0.4 nM, read-out: IC50 [gt-1b A156T]

| Molecule | EC50 (HCV genotype 1b replicon; Hepatitis C virus) | IC50 [3] | IC50 [1, 5] | IC50 [2, 6] | also measured |
| --- | --- | --- | --- | --- | --- |
| COc1ccc2nc(C(F)(F)F)c3c(c2c1)CC[C@]1(C[C@H]2C(=O)N[C@]4(C(=O)NS(=O)(=O)C5(C)CC5)C[C@H]4/C=C\CCCCC[C@H](NC(=O)OCC(C)C)C(=O)N2C1)O3 [Example 6, Isobutyl ((2R,6S,13aS,14aR,16aS,Z)-9′-methoxy-14a-(((1-methylcyclopropyl)sulfonyl)carbamoyl)-5,16-dioxo-5′-(trifluoromethyl)-1′,2′,3,5,6,7,8,9,10,11,13a,14,14a, 15,16,16a-hexadecahydro-1H-spiro[cyclopropa[e]pyrrolo[1,2-a][1,4]diazacyclopentadecine-2,3′-pyrano[2,3-c]quinolin]-6-yl)carbamate] | 1.23 nM | 0.53 nM |  |  | IC50 ([1]; IC50 [gt-1b] (nM), NS3/4A genotype 1b, enzyme 0.2 nM): 0.016 nM; IC50 [2]: 0.591 nM |
| Cc1nc2ccccc2c2c1O[C@@]1(CC2)C[C@H]2C(=O)N[C@]3(C(=O)NS(=O)(=O)C4(C)CC4)C[C@H]3/C=C\CCCCC[C@H](NC(=O)NC(C)(C)C)C(=O)N2C1 [Example 78, (2S,6S,12Z,13aS,14aR,16aS)-6-[(tert-butylcarbamoyl)amino]-5′-methyl-N-[(1-methylcyclopropyl)sulfonyl]-5,16-dioxo-1,1′,2′,6,7,8,9,10,11,13a,14,15,16,16a-tetradecahydrospiro[cyclopropa[e]pyrrolo[1,2-a][1,4]diazacyclopentadecine-2,3′-pyrano[2,3-c]quinoline]-14a(5H)-carboxamide] | 85 nM |  |  |  | IC50 [2, 4]: 3.11 nM |
| Cc1nc2ccccc2c2c1O[C@]1(CC2)C[C@H]2C(=O)N[C@]3(C(=O)NS(=O)(=O)C4(C)CC4)C[C@H]3/C=C\CCCCC[C@H](NC(=O)OC3(C)CC3)C(=O)N2C1 [Example 79, 1-methylcyclopropyl [(2R,6S,12Z,13aS,14aR,16aS)-5′-methyl-14a-{[(1-methylcyclopropyl)sulfonyl]carbamoyl}-5,16-dioxo-1,1′,2′,5,6,7,8,9,10,11,13a,14,14a,15,16,16a-hexadecahydrospiro[cyclopropa[e]pyrrolo[1,2-a][1,4]diazacyclopentadecine-2,3′-pyrano[2,3-c]quinolin]-6-yl]carbamate] | 1.69 nM |  |  |  | IC50 [2, 4]: 0.151 nM |
| COc1cc(Cl)c2nc(C(F)(F)F)c3c(c2c1)CC[C@]1(C[C@H]2C(=O)N[C@]4(C(=O)NS(=O)(=O)C5(C)CC5)C[C@H]4/C=C\CCCCC[C@H](NC(=O)OC(C)(C)C)C(=O)N2C1)O3 [Example 398, tert-butyl [(2R,6S,12Z,13aS,14aR,16aS)-7′-chloro-9′-methoxy-14a-{[(1-methylcyclopropyl)sulfonyl]carbamoyl}-5,16-dioxo-5′-(trifluoromethyl)-1,1′,2′,5,6,7,8,9,10,11,13a,14,14a,15,16,16a-hexadecahydrospiro[cyclopropa[e]pyrrolo[1,2-a][1,4]diazacyclopentadecine-2,3′-pyrano[2,3-c]quinolin]-6-yl]carbamate] |  | 2.35 nM | 0.025 nM | 0.496 nM |  |
| COc1cc(Cl)c2nc(C(F)(F)F)c3c(c2c1)CC[C@]1(C[C@H]2C(=O)N[C@]4(C(=O)NS(=O)(=O)C5(C)CC5)C[C@H]4/C=C\CCCCC[C@H](NC(=O)OCC(C)C)C(=O)N2C1)O3 [Example 399, 2-methylpropyl [(2R,6S,12Z,13aS,14aR,16aS)-7′-chloro-9′-methoxy-14a-{[(1-methylcyclopropyl)sulfonyl]carbamoyl}-5,16-dioxo-5′-(trifluoromethyl)-1,1′,2′,5,6,7,8,9,10,11,13a,14,14a,15,16,16a-hexadecahydrospiro[cyclopropa[e]pyrrolo[1,2-a][1,4]diazacyclopentadecine-2,3′-pyrano[2,3-c]quinolin]-6-yl]carbamate] |  | 6.45 nM | 0.027 nM | 1.45 nM |  |
| COc1ccc2nc(C(F)(F)F)c3c(c2c1)[C@](C)(O)C[C@]1(C[C@H]2C(=O)N[C@]4(C(=O)NS(=O)(=O)C5(C)CC5)C[C@H]4/C=C\CCCCC[C@H](NC(=O)OC4(C)CCC4)C(=O)N2C1)O3 [Example 507, 1-methylcyclobutyl [(1′R,2S,6S,12Z,13aS,14aR,16aS)-1′-hydroxy-9′-methoxy-1′-methyl-14a-{[(1-methylcyclopropyl)sulfonyl]carbamoyl}-5,16-dioxo-5′-(trifluoromethyl)-1,1′,2′,5,6,7,8,9,10,11,13a,14,14a,15,16,16a-hexadecahydrospiro[cyclopropa[e]pyrrolo[1,2-a][1,4]diazacyclopentadecine-2,3′-pyrano[2,3-c]quinolin]-6-yl]carbamate] |  | 4.45 nM | 0.025 nM | 2.37 nM |  |
| COCCCOc1ccc2nc(C(F)(F)F)c3c(c2c1)CC[C@]1(C[C@H]2C(=O)N[C@]4(C(=O)NS(=O)(=O)C5(C)CC5)C[C@H]4/C=C\CCCCC[C@H](NC(=O)OC4(C)CCC4)C(=O)N2C1)O3 [Example 522, 1-methylcyclobutyl [(2R,6S,12Z,13aS,14aR,16aS)-9′-(3-methoxypropoxy)-14a-{[(1-methylcyclopropyl)sulfonyl]carbamoyl}-5,16-dioxo-5′-(trifluoromethyl)-1,1′,2′,5,6,7,8,9,10,11,13a,14,14a,15,16,16a-hexadecahydrospiro[cyclopropa[e]pyrrolo[1,2-a][1,4]diazacyclopentadecine-2,3′-pyrano[2,3-c]quinolin]-6-yl]carbamate] |  | 0.311 nM |  |  | IC50 ([1]; IC50 [gt-1b], NS3/4A protease TRF assay, genotype 1b enzyme 0.2 nM, K+ salt): 0.005 nM; IC50 ([2]; NS3/4A protease TRF assay, A156T mutant enzyme 0.4 nM, K+ salt, read-out: IC50 [gt-1b A156T]): 0.281 nM |
| COc1ccc2nc(C(F)F)c3c(c2n1)CC[C@]1(C[C@H]2C(=O)N[C@]4(C(=O)NS(=O)(=O)C5(C)CC5)C[C@H]4/C=C\CCCCC[C@H](NC(=O)O[C@@H]4C[C@@H]5C[C@@H]5C4)C(=O)N2C1)O3 [Example 524, (1R,3r,5S)-bicyclo[3.1.0]hex-3-yl [(2R,6S,12Z,13aS,14aR,16aS)-6′-(difluoromethyl)-2′-methoxy-14a-{[(1-methylcyclopropyl)sulfonyl]carbamoyl}-5,16-dioxo-1,5,6,7,8,9,9′,10,10′,11,13a,14,14a,15,16,16a-hexadecahydrospiro[cyclopropa[e]pyrrolo[1,2-a][1,4]diazacyclopentadecine-2,8′-pyrano[2,3-c][1,5]naphthyridin]-6-yl]carbamate] |  | 0.109 nM | 0.003 nM | 0.182 nM |  |
| C=C[C@@H]1C[C@]1(NC(=O)[C@@H]1C[C@]23CCc4c(c(nc5ccc(OC)cc45)CCCCC[C@@H]4C[C@H]4OC(=O)N[C@@H](C(C)(C)C)C(=O)N1C2)O3)C(=O)NS(=O)(=O)C1(C)CC1 [Example 527] |  | 0.679 nM | 0.026 nM |  |  |
| tert-Butyl (2R,6S,13aS,14aR,16aS,Z)-10′-chloro-5′-(difluoromethyl)-9′-methoxy-14a-(1-methylcyclopropylsulfonylcarbamoyl)-5,16-dioxo-1′,2′,3,5,6,7,8,9,10,11, 13a,14,14a,15,16,16a-hexadecahydro-1H-spiro[cyclopropa[e]pyrrolo[1,2-a][1,4]diaza cyclopentadecine-2,3′-pyrano[2,3-c]quinoline]-6-ylcarbamate [Example 27] |  |  |  |  | EC50 (HCV genotype 1b replicon): 10.6 nM; IC50 ([1]; NS3/4A genotype 1b, enzyme 0.2 nM, read-out: IC50 [gt-1b]): 0.011 nM |
